Source: patent US5484940A, “Substituted 3-indolyl-5-pyrazolone compounds” (priority 1994, dated 1996)

How the values were obtained:
[1] = test system: β-amyloid peptide production; experiment: Cellular screen for inhibitors of β-amyloid production (ELISA, 293 751 SWE cells); format: cell-based, human; details: 2 h pretreatment + 2 h, normalized for cytotoxicity (MTT), concentration not given
In short: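 293 751 SWE cells (K293 stably expressing APP751 Swedish mutant) pretreated 2 h with compound, then fresh compound-containing medium for 2 h more at 37 °C. Secreted β-amyloid in conditioned medium quantified by sandwich ELISA (capture 266 anti-Aβ13-28, labelled 6C6 anti-Aβ1-16) against a standard curve as ng/mL; mean ± SD of ≥6 replicates.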

[2] = test system: human cortical neurons; experiment: Inhibition of toxicity of β-amyloid peptide to human neuronal cells (alamarBlue); format: cell-based; details: 50 μM β-amyloid peptide, 2-3 days; on average where more than one duplicate experiment; compound concentration not stated
In short: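 Primary human cortical neurons, cultured in MEM/B27, were exposed to test compound plus 50 μM β-amyloid peptide in MEM for 2-3 days at 37 °C. Neuronal survival was quantified by reduction of 10% alamarBlue in MEM (fluorometric/colorimetric metabolic indicator).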

**Q.** What does the source list for COc1ccc2c(c1)c(CC1=NN(c3cccc(C(F)(F)F)c3)C(=O)C1)c(C)n2C(=O)c1ccc(Cl)cc1 [Example 25, 3-[1-(4-chlorobenzoyl)-5-methoxy-2-methyl-3-indolylmethyl]-1-(3-trifluoromethylphenyl)-5-pyrazolone]?
**A.** reduction of β-amyloid peptide production as compared to control [1]: at least 20%; inhibition of the toxicity of β-amyloid peptide to human neuronal cells [2]: at least 25%
